Assay results published in US7927799B2, “Inhibitors of PGHS-2Transactivator activity” (Ordway Research Institute, priority 2005, dated 2011).

Key:
PGE2 production = PGE2 production in cells by ELISA; assay type: cell-based, human; settings: DU145 and UM-SCC-22B cells, 12 h; PMA 100 nM, NS398, indomethacin, PD98059 each 10 μM
Method: Cells were plated in 48-well culture dishes and treated or without PMA (100 nM), NS398 (10 μM), indomethacin (10 μM) or PD98059 (10 μM) for 12 h. Cells were transferred to 200 μl PBS for the last 30 min. Samples were then collected and subjected to quantitative analysis of PGE2 by ELISA. The results are shown as mean±SD of results from three representative studies.

[1] = system: PGHS-1 protein expression; assay: PGHS-1 protein by immunoblotting; assay type: cell-based, human; settings: PMA 100 nM, 12 h; cancer cell lines
Method: FIG. 2. Expression of PGHS-2 in ECV 304, DU145 and UM-SCC-22B (22B) cells A: Constitutive expression of PGHS-2 protein in ECV 304, DU145 and UM-SCC-22B cells. Cells were grown to confluence in 10 cm dishes. Monolayers were treated with or without PMA (100 nM) for 12 h; nuclear proteins were then harvested and subjected to immunoblotting with antihuman PGHS-2 (panel 1) or -PGHS-1 (panel 2).
(§1) The techniques used were those previously described by our laboratory (Lin et al., 1999). In brief, nucleoproteins were separated on discontinuous SDS-PAGE (9% gels) and then transferred by electroblotting to Immobilon membranes (Millipore, Bedford, Mass.). After blocking with 5% milk in Tris-buffered saline containing 0.1% Tween, the membranes were incubated with various antibodies overnight. Secondary antibodies were either goat anti-rabbit IgG (1:1000) or rabbit anti-mouse IgG (1:1000) (Dako, Carpenteria, Calif.), depending upon the origin of the primary antibody. Immunoreactive proteins were detected by chemiluminescence.

PGHS-2 promoter = assay: Chromatin immunoprecipitation (ChIP) of PGHS-2 binding to the PGHS-2 promoter; assay type: cell-based, human; settings: 12 h, PMA 100 nM, PDTC 100 μM, PD98059 10 μM
Method: (§2) A: ChIP was performed with PGHS-2 antibody, using UM-SCC-22B (22B) cells constitutively expressing PGHS-2, and in the absence (Con) or presence of PMA (100 nM), PDTC (100 μM) or PD98059 (PD, 10 μM) for 12 h. Input and immunoprecipitated (IP) DNA was amplified by using primers for MDM2, PGHS-2 promoter and PGHS-2 ORF, and the amplified DNAs were then separated by electrophoresis and scanned with the VersaDOC™ Imaging System.
(§3) In ChIP experiments in prostate cancer cells, using monoclonal anti-PGHS-2, we compared the amount of immunoprecipitable PGHS-2 promoter sequence with the amount of input DNA for each sample; a PGHS-2 ORF primer served as a negative control. […] PGHS-2 also bound to the promoter region of MDM2.
Chromatin immunoprecipitation was performed as described by Luo et al. (1998) and Braunstein et al. (1996). Aliquots of cells (6 ×10^6) in monolayers were treated with 1% formaldehyde for 15 min at room temperature to effect crosslinking. Monolayers were then washed twice with PBS. Extracts were prepared by scraping cells in 1 ml of buffer (150 mM NaCl, 1% NP-40, 0.5% DOC, 0.1% SDS, 50 mM Tris [pH 8.0], 5 mM EDTA) that contained the protease inhibitors leupeptin (10 µg/ml) and pepstatin A (10 µg/ml), phosphatase inhibitors (50 mM NaF and 0.2 mM sodium orthovanadate) and the deacetylase inhibitor, trichostatin A, 5 µM (Calbiochem, San Diego, Calif.). Cell lysates were sonicated to yield chromatin fragments of approximately 600 bp, as assessed by agarose gel electrophoresis. Immunoprecipitation was carried out with anti-p53 (Santa Cruz, Santa Cruz, Calif.), anti-phosphoSer392-p53 (Cell Signaling, Beverly, Mass.), or anti-acetylated p53 (Upstate Biotechnology, Lake Placid, N.Y.). For studies of the PGHS-2 promoter, anti-PGHS-2 (Cayman) was used. […] Relative levels of DNA were determined with QuantifyOne software (Bio-Rad Laboratories, Inc., Hercules, Calif.).

PGHS-2 mRNA = PGHS-2 mRNA levels by RT-PCR; assay type: cell-based, human; settings: PMA 100 nM, 8 h; ECV 304, DU145 and UM-SCC-22B cells
Method: B: PGHS-2 mRNA levels in ECV 304, DU145 and UM-SCC-22B cells. Confluent cells were treated with or without PMA (100 nM) for 8 h. Total RNA samples were harvested and subjected to RT-PCR using PGHS-2 or GAPDH primers (top and bottom panels, respectively).

[2] = system: PGHS-2 protein expression; assay: PGHS-2 protein by immunoblotting of nuclear/cytosol proteins; assay type: cell-based, human; settings: PMA 100 nM, 12 h; for PGHS-2 protein / PGHS-2 expression: confluent UM-SCC-22B cells, PD98059 10 μM, SB203580 10 μM, PDTC 100 μM
Method: A: Effects of PKC activation or signaling pathway inhibitors on PGHS-2 expression. UM-SCC 22B cells were allowed to grow to confluence in 10 cm culture dishes, and then received either control medium (lane 1) or medium containing PMA (lane 2, 100 nM), PD98059 (PD, lane 3, 10 μM), SB203580 (SB, lane 4, 10 μM) or PDTC (lane 5, 100 μM) for 16 h. Cell monolayers were harvested and 40 μg nuclear protein were subjected to immunoblotting with anti-human PGHS-2 (upper panel) or anti-pMAPK (pERK1/2, lower panel). […] Results shown are the means±SD from three similar experiments.
Fractionation of cells in a microfuge and preparation of nucleoproteins was by a previously reported method (Lin et al., 2002). Nuclear extracts were prepared by resuspension of the crude nuclear fraction in high salt buffer (420 mN NaCl, 20% glycerol) at 4° C. with rocking for 1 h. The supernatants were then collected after subsequent centrifugation at 4° C. and 13,000 rpm for 10 min.

[3] = system: PGHS-2 / c-Fos association; assay: Co-immunoprecipitation of nuclear PGHS-2 with c-Fos; assay type: cell-based, human; settings: UM-SCC-22B cells, PMA 100 nM, 12 h
Method: (§4) Confluent UM-SCC-22B (22B) cells were treated with PMA, 100 nM, or solvent alone for 12 h. Cell nuclei were prepared (Lin et al., 1999) and immunoprecipitated with antibody to PGHS-2. Immunoprecipitated proteins were separated by gel electrophoresis and immunoblotted with antibody to c-Fos, MDM2 or p300. Shown are representative immunoblots from 3 similar experiments. Co-localization of c-Fos with PGHS-2 is seen in nuclei of UM-SCC-22B cells.
as §1

human PGHS-2 promoter = assay: PGHS-2 promoter (-831/+123) luciferase reporter assay; assay type: cell-based; settings: UM-SCC-22B cells, 12 h; PMA 100 nM, PD98059 10 μM, PDTC 100 μM, SB203580 10 μM
Method: UM-SCC-22B cells were transfected with the −831/+123 PGHS-2 promoter constructs fused to a luciferase reporter or the luciferase reporter with the SV 40 promoter (pGL2 promoter).
Aliquots of cells were treated with PMA (100 mM), PD98059 (10 μM), PDTC (100 μM), or SB203580 (10 μM) for 12 h. Cultures were co-transfected with β-galactosidase reporter plasmids, and luciferase activity, corrected for β-galactosidase activity, measured and expressed as the mean±SD of triplicate culture determinations from three experiments.
To assess PGHS-2 promoter activity in UM-SCC-22B cells, the proximal −831/+123 base pairs of the human PGHS-2 promoter were fused to a luciferase reporter (pGHS-2 LUC) (Cao et al., 1999). This PGHS-2 reporter or SV40 LUC (pGL2 promoter) were transfected into near confluent UM-SCC-22B tumor cells.

[4] = system: PGHS-2 / p300 association; assay: Co-immunoprecipitation of nuclear PGHS-2 with p300; assay type: cell-based, human; settings: UM-SCC-22B cells, PMA 100 nM, 12 h
Method: as §4, §1

[5] = system: PGHS-2 / MDM2 association; assay: Co-immunoprecipitation of nuclear PGHS-2 with MDM2; assay type: cell-based, human; settings: UM-SCC-22B cells, PMA 100 nM, 12 h
Method: as §4, §1

MDM2 promoter = assay: Chromatin immunoprecipitation (ChIP) of PGHS-2 binding to the MDM2 promoter; assay type: cell-based, human; settings: 12 h, PDTC 100 μM, PD98059 10 μM
Method: as §2, §3
Chromatin immunoprecipitation was performed as described by Luo et al. (1998) and Braunstein et al. (1996). Aliquots of cells (6 ×10^6) in monolayers were treated with 1% formaldehyde for 15 min at room temperature to effect crosslinking. Monolayers were then washed twice with PBS. […] Cell lysates were sonicated to yield chromatin fragments of approximately 600 bp, as assessed by agarose gel electrophoresis. […] Relative levels of DNA were determined with QuantifyOne software (Bio-Rad Laboratories, Inc., Hercules, Calif.).

| Structure (SMILES) | PGE2 production (PGE2 production) | binding of PGHS-2 to the PGHS-2 promoter (PGHS-2 promoter) | PGHS-2 protein / PGHS-2 expression [2] | PGHS-2 promoter activity (luciferase) (human PGHS-2 promoter) | binding of PGHS-2 to the MDM2 promoter (MDM2 promoter) | further results |
| --- | --- | --- | --- | --- | --- | --- |
| COc1ccc2c(c1)c(CC(=O)O)c(C)n2C(=O)c1ccc(Cl)cc1 [indomethacin] | decreased PGE2 production in cancer cells to basal levels |  |  |  |  |  |
| CS(=O)(=O)Nc1ccc([N+](=O)[O-])cc1OC1CCCCC1 [NS398] | decreased PGE2 production in cancer cells to basal levels |  |  |  |  |  |
| CCCCCCCCCCCCCC(=O)O[C@@H]1[C@@H](C)[C@@]2(O)[C@@H](C=C(CO)C[C@]3(O)C(=O)C(C)=C[C@@H]23)[C@@H]2C(C)(C)[C@]12OC(C)=O [PMA, phorbol-12-myristate-13-acetate] | did not significantly increase | minimal increases | increase | only negligibly increased |  | abundance of PGHS-1 [1]: no effect; abundance of PGHS-2 mRNA (PGHS-2 mRNA): increased; cytosolic PGHS-2 [2]: increased; abundance of PGHS-2 protein in nuclei ([2]; ECV 304, DU145 and UM-SCC-22B cells): increased; nuclear association of PGHS-2 with c-Fos [3]: marked increase; nuclear association of PGHS-2 with p300 [4]: little increase; nuclear association of PGHS-2 with MDM2 [5]: little increase |
| C[S+]([O-])c1ccc(-c2nc(-c3ccncc3)c(-c3ccc(F)cc3)[nH]2)cc1 (stereo not drawn) [SB203580] |  |  | minimally inhibited | inhibited |  |  |
| S=C(S)N1CCCC1 [PDTC, pyrrolidine dithiocarbamate] |  | inhibited | minimally inhibited | inhibited | inhibited |  |
| COc1cccc(-c2cc(=O)c3ccccc3o2)c1N [PD98059] | decreased PGE2 production in cancer cells to basal levels | inhibited | decreased to very low levels | inhibited | inhibited |  |
